From patent publication US20100174075A1, “USE OF NITRIC OXIDE-RELEASING STATINS IN THE TREATMENT OF PULMONARY ARTERIAL HYPERTENSION” (NICOX S.A., priority 2007, published 2010)

What was measured:
[1] = system: Endothelin-1 (ET-1) release from PASMCs; test: TGF-β1-stimulated ET-1 release from PASMCs (chemiluminescent immunoassay); assay type: cell-based, human; conditions: 1 μM; TGF-β1 10 ng/ml; PASMCs conditioned medium
Procedure: Endothelin-1 (ET-1) release from PASMCs was measured in conditioned media using a chemiluminescent immunoassay system (QuantiGlo®, R&D Systems, UK). Cells were grown to confluence in 24-well plates (5×10^4 cells per well) in DMEM containing 10% FBS and serum-deprived for 24-hours prior to stimulation with transforming growth factor-[…] (TGF-β1) (10 ng/ml) and treatment with pravastatin and NO-releasing pravastatin (Example 1 of WO 2004/105754). Release experiments were also conducted in the presence of mevalonic acid (MVA), farnesylpyrophosphate (FPP), geranylgeranylpyrophosphate (GGPP) and inhibitors of geranylgeranyl transferase (GGTI-2133), farnesyl transferase (FTI-277) and Rho Kinase (Y27632). Production of MMP-9 was induced by dual stimulation with tumour necrosis factor-α (TNF-α) (10 ng/ml) and phorbol 12-[…] 13-acetate (PMA) (0.1 μM) and measured in conditioned medium using a Biotrack® ELISA-based immunoassay (GE Healthcare, UK). In the presence of TGF-β1 (10 ng/ml), ET-1 production by PASMCs increased markedly, compared with control serum-deprived cells.

[2] = system: Human pulmonary artery smooth muscle cells (PASMCs); test: DNA synthesis by [3H-methyl]-thymidine incorporation in PDGF-stimulated PASMCs; assay type: cell-based; conditions: PDGF-BB 5 ng/ml, 24 hours
Procedure: DNA synthesis was measured by [^3H-methyl]-thymidine incorporation over 24 hours as previously described.
Human pulmonary artery smooth muscle cells (PASMCs) were seeded in 48-well plates at a density of 5×10^4 cells/well in Dulbecc's modified Eagle medium (DMEM) containing 10% fetal bovine […] (FBS). Cells were allowed to adhere overnight, providing a monolayer of approximately 80-90% confluence, and then quiesced for 48 hours with daily changes in serum-free DMEM. Cells were subsequently incubated in fresh medium containing 0.25 μCi/well [^3H-methyl]-thymidine (GE Healthcare, Little Chalfont, Buck's, UK) and treated with pravastatin and NO-releasing pravastatin (Example 1 of WO 2004/105754) at stated concentrations in the presence and absence of recombinant human platelet-derived growth factor-BB (PDGF) (5 ng/ml). Four to six replicates were analysed per treatment and [^3H-methyl]-thymidine uptake determined by liquid scintillation analysis (2200CA TRI-CARB, United Technologies Packcard, Pangbourne, UK).

CC[C@H](C)C(=O)O[C@H]1C[C@H](O)C=C2C=C[C@H](C)[C@H](CC[C@@H](O)C[C@@H](O)CC(=O)O)[C@H]21 [Pravastatin]
ET-1 (% of TGF-β1) [1]: 89.9 ± 12.8 % of TGF-β1 | [3H-Methyl]-thymidine incorporation (% of PDGF) ([2]; 1 μM): 95.0 ± 3.6 % of PDGF | [3H-Methyl]-thymidine incorporation (% of PDGF) ([2]; 5 μM): 92.5 ± 4.2 % of PDGF | [3H-Methyl]-thymidine incorporation (% of PDGF) ([2]; 10 μM): 89.5 ± 2.4 % of PDGF
